From PubChem BioAssay AID1963425 (Molecular Pharmacology Branch, DTP, NCI, 2024)
Where “and” joins values, the source holds several entries; their conditions need not be identical. Equal values may be shown once.

Tested on: 323965-272-R-J2-PDC complex spheroid growth, % test/control
Test: Anticancer human tumor 323965-272-R-J2-PDC patient-derived pancreatic carcinoma cell line growth inhibition [Asc]
Settings: for viability, T/C: stronger effect = lower value
Experimental: Multicellular complex tumor spheroid response to apoptosis pathway targeting inhibitors Alrizomadlin, Pelcitoclax, and Dasminapant in combination with a variety of drugs and investigational agents in selected tumor cell lines
The MDM2 inhibitor alrizomadlin, the Bcl-2/Bcl-xL inhibitor pelcitoclax, and the IAPs inhibitor dasminapant were evaluated both individually and in combination with standard of care and investigational anticancer small molecules within a complex spheroid model of solid tumors. . Complex spheroids include a stromal component modeled by human endothelial cells (HUVEC) and fibroblasts modeled by human mesenchymal stem cells (MSCs). The concentration ranges selected for each drug and investigational agent were based upon clinically achievable concentrations if the clinical Cmax of the agent was known.
Compounds. The drugs and investigational agents: alrizomadlin (APG-115; NSC831270), pelcitoclax (APG-1252; NSC835773), dasminapant (APG-1387;NSC834197), TAK-243 (NSC785004), copanlisib (NSC809693), olaparib (NSC753686), talazoparib (NSC767125), cobimetinib (NSC 768068), eltanexor (KPT-8602, NSC 794443), abemaciclib (NSC 768073), sotorasib (NSC818433), adagrasib (NSC 831453), MRTX-1133 (NSC 836407), Iadademestat (ORY1001, NSC 806812), and RMC-4630 (NSC839698), were obtained from the NCI Developmental Therapeutics Program Chemical Repository. The FDA-approved anticancer drug set is available from the Developmental Therapeutics Program at https://dtp.cancer.gov/organization/dscb/obtaining/available plates.htm. […] The stock solutions were prepared in dimethyl sulfoxide (DMSO, Sigma-Aldrich, St. Louis, MO, cat. D2650) at 800-fold the tested concentration and stored at -70 degrees C prior to their use. All drugs and investigational agents were tested over a range starting from a high concentration at or near the clinical Cmax and decreasing in half-log increments. If the clinical Cmax for an agent had not been determined, the highest concentration tested was 10 microM.
The patient-derived cancer (PDC) cell lines include five colon adenocarcinomas: 186277-243-T-J2-PDC, 616215-338-R-J1-PDC, 439559-082-T-J2-PDC, 463943-066-T-J2-PDC, and 519858-162-T-J1-PDC; three pancreatic carcinomas: 323965-272-R-J2-PDC, 521955-158-R6-J3-PDC, and 521955-158-R2-J5-PDC; two uterine sarcomas: 327498-152-R-J2-PDC and 993429-296-R-J1-PDC; two rhabdomyosarcomas: 755483-174-R-J1-PDC and 772245-204-R-J1-PDC; two soft tissue sarcomas: 126254-015-R-J1-PDC and 494315-158-R-J1-PDC; two malignant fibrous histiocytomas: 317291-083-R-J1-PDC and 596521-263-R-J1-PDC; two breast carcinomas: 171881-019-R-J1-PDC and 885512-296-R-J2-PDC; and one ovarian carcinoma: 6556581-035-R-J-PDC were obtained from the NCI PDMR, (https://pdmr.cancer.gov). The established cell lines HSSY-2 synovial sarcoma (RRID:CVCL 8719), SYO-1 synovial sarcoma (RRID:CVCL_7146), MPNST malignant peripheral neural sheath tumor were obtained from the Sloan Kettering Institute. The following established cell lines were purchased from the American Type Culture Collection (ATCC, Manassas, VA), Sor the received from the NCI repository:, PANC-1 pancreatic carcinoma (CRL-1469, RRID:CVCL_0480), OVCAR-5 ovarian carcinoma (RRID:CVCL_1628), OVCAR-8 ovarian carcinoma (RRID:CVCL_1629), , MCF-7 breast carcinoma (CRL-12584, RRID:CVCL_0031), MDA-MB-231 breast carcinoma (CRL-12532, RRID:CVCL_0062), NCI-H1876 small cell lung carcinoma (CRL-5902, RRID:CVCL_1503), NCI-H510A small cell lung carcinoma (HTB-184, RRID:CVCL_1565), NCI-H1417 (CRL-5869, RRID:CVCL_1469), and NCI-H196 small cell lung carcinoma (CRL-5823, RRID:CVCL_1509). Dr. Peter Houghton (Greehey Children's Cancer Research Institute, University of Texas Health Science Center, San Antonio, TX) provided Rh-18 rhabdomyosarcoma (RRID:CVCL_1659). Pooled donor human umbilical vein endothelial cells (HUVEC, Lonza, cat. CC-2519) and human mesenchymal stem cells (hMSC, Lonza, cat. PT-2501) were purchased from Lonza (Walkersville, MD).
Cell Culture. […]

[1] = compound alone, run of 11/07/2022
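Note: compound exposure lasted 7 days starting three days after spheroid seeding.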
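Throughout, for viability, T/C: 100% = DMSO vehicle control wells with viability set relative to vehicle.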

IC50 (curve of compound)	Compound	viability, T/C (compound 0.0316 µM)	viability, T/C (compound 0.1 µM)	viability, T/C (compound 0.316 µM)	viability, T/C (compound 1 µM)	viability, T/C (compound 3.16 µM)	viability, T/C (compound 0.00316 µM)	viability, T/C (compound 0.01 µM)	also measured
> 10 µM	C#Cc1c(F)ccc2cc(O)cc(-c3ncc4c(N5CC6CCC(C5)N6)nc(OCC56CCCN5CC(F)C6)nc4c3F)c12 (stereo not given)	105% and 94.4% and 104%	106% and 91.6% and 102%	103% and 107% and 98.3%	87.3% and 97.4% and 111%	67.9% and 75.1% and 76.7%			viability, T/C (compound 10 µM): 62.3% and 59.4% and 62.5%
3.55 µM and 4.84 µM and 5.67 µM	C=C(F)C(=O)N1CCN(c2nc(OCC3CCCN3C)nc3c2CCN(c2cccc4cccc(Cl)c24)C3)CC1CC#N (stereo not given)	56.9% and 67.8% and 73.2%	51.6% and 58.2% and 53.8%	47.7% and 60% and 57.1%	59% and 70.1% and 72.8%	61.5% and 76.8% and 82.5%			
> 10 µM	C=CC(=O)N1CCN(c2nc(=O)n(-c3c(C)ccnc3C(C)C)c3nc(-c4c(O)cccc4F)c(F)cc23)C(C)C1 (stereo not given)	68.7% and 71.9% and 67.7%	56.3% and 59.3% and 71.6%	58.4% and 59% and 65.9%	57% and 64.3% and 67.5%	66.4% and 72.1% and 67.5%			viability, T/C (compound 10 µM): 64.8% and 65.6% and 61.1%
> 3 µM	CCN1C(C(=O)NC23CCC(C(=O)O)(CC2)CC3)C(c2cccc(Cl)c2F)C2(C(=O)Nc3cc(Cl)ccc32)C12CCCCC2 (stereo not given)								viability, T/C (compound 0.00949 µM): 109% [middle of 9 runs]; viability, T/C (compound 0.03 µM): 105% [middle of 9 runs]; viability, T/C (compound 0.0949 µM): 104% [middle of 9 runs]; viability, T/C (compound 0.3 µM): 101% [middle of 9 runs]; viability, T/C (compound 0.949 µM): 110% [middle of 9 runs]; viability, T/C (compound 3 µM): 101% [middle of 9 runs]; IC50 [1]: > 3 µM
> 1 µM	CCN1CCN(Cc2ccc(Nc3ncc(F)c(-c4cc(F)c5nc(C)n(C(C)C)c5c4)n3)nc2)CC1	91.6% and 94.6% and 76.7%	75.6% and 84.4% and 76.1%	65.8% and 71.8% and 68%	67.9% and 74.1% and 82.3%		114% and 101% and 112%	109% and 98.9% and 112%	
> 1 µM	CNC(C)C(=O)NC1CN(S(=O)(=O)c2cccc(S(=O)(=O)N3CCC4CCC(C(=O)NC(c5ccccc5)c5ccccc5)N4C(=O)C(NC(=O)C(C)NC)C3)c2)CCC2CCC(C(=O)NC(c3ccccc3)c3ccccc3)N2C1=O (stereo not given)		106% [middle of 9 runs]	100% [middle of 9 runs]				109% [middle of 9 runs]	IC50 (compound alone, run of 11/15/2022): > 1 µM
0.154 µM and 0.119 µM and 0.0921 µM	COc1c(OCCCN2CCOCC2)ccc2c3n(c(=NC(=O)c4cnc(N)nc4)nc12)CCN3	79.6% and 65.5% and 71.6%	49.5% and 56.1% and 55.9%	32.8% and 41.2% and 33.7%	30.5% and 33.6% and 25.3%		100% and 85.6% and 103%	99.3% and 80.7% and 93%	
	Cc1c(S(C)(=O)=O)c(-c2cc(F)cc(N3CCN(c4ccc(NS(=O)(=O)c5ccc(NC(CCN6CCC(C(=O)OCCCP(=O)(O)O)CC6)CSc6ccccc6)c(S(=O)(=O)C(F)(F)F)c5)cc4)CC3)c2)c(-c2ccc(Cl)cc2)n1C(C)C (stereo not given)	107% [middle of 7 runs]	107% [middle of 7 runs]	98.3% [middle of 7 runs]		84.5% [middle of 7 runs]			viability, T/C (compound 10 µM): 76.9% [middle of 7 runs]; IC50 [1]: > 10 µM
2.62 µM and 1.92 µM and 2.5 µM	Cc1nc(N2CCC3(CC2)COC(C)C3N)c(CO)nc1Sc1ccnc(N)c1Cl (stereo not given)								viability, T/C (compound 0.00949 µM): 102% and 96% and 110%; viability, T/C (compound 0.03 µM): 83.6% and 82.4% and 93.1%; viability, T/C (compound 0.0949 µM): 78.5% and 71.7% and 79.6%; viability, T/C (compound 0.3 µM): 63.5% and 73.1% and 66%; viability, T/C (compound 0.949 µM): 54.4% (2×) and 55%; viability, T/C (compound 3 µM): 50.1% and 45.6% and 49.1%
> 0.1 µM	Cn1ncnc1[C@H]1c2n[nH]c(=O)c3cc(F)cc(c23)N[C@@H]1c1ccc(F)cc1	103% and 95.3% and 106%	89.7% and 95.6% and 94.9%				103% and 104% and 99.2%	96.4% (2×) and 120%	viability, T/C (compound 0.000316 µM): 103% and 109% and 106%; viability, T/C (compound 0.001 µM): 96.5% and 103% and 99.3%
> 0.3 µM	NC(=O)C(=Cn1cnc(-c2cc(C(F)(F)F)cc(C(F)(F)F)c2)n1)c1cncnc1								viability, T/C (compound 0.000949 µM): 105% and 108% and 73.8%; viability, T/C (compound 0.003 µM): 91.3% and 106% and 96.3%; viability, T/C (compound 0.00949 µM): 101% and 105% and 88.4%; viability, T/C (compound 0.03 µM): 93.7% and 89% and 82.1%; viability, T/C (compound 0.0949 µM): 86.4% and 80.2% and 77.3%; viability, T/C (compound 0.3 µM): 57.8% and 57% and 75.2%
> 0.1 µM	NC1CCC(NC2CC2c2ccccc2)CC1 (stereo not given)	120% and 103% and 94%	110% and 90.2% and 92.5%				102% and 98.4% and 89.8%	101% and 97.8% and 90.7%	viability, T/C (compound 0.000316 µM): 97.5% and 97% and 94.2%; viability, T/C (compound 0.001 µM): 105% and 97.8% and 90%
> 10 µM	O=C(c1cc(Cc2n[nH]c(=O)c3ccccc23)ccc1F)N1CCN(C(=O)C2CC2)CC1	105% and 66.7% and 98.1%	86.6% and 102% and 89.1%	101% and 116% and 79%	104% and 108% and 117%	98.2% and 110% and 94.2%			viability, T/C (compound 10 µM): 87.7% and 91.1% and 80.9%
0.176 µM and 0.149 µM and 0.123 µM	O=C(c1ccc(F)c(F)c1Nc1ccc(I)cc1F)N1CC(O)([C@@H]2CCCCN2)C1	87% and 76.1% and 79%	62.9% and 59.7% and 52.5%	34.9% and 34.5% and 31.9%	19.6% and 20.1% and 18.8%		106% and 101% and 88.5%	82.5% and 96.7% and 83.5%	
